Test results from patent publication US20260258029A1, “CHROMANE AMIDINE MONOBACTAM COMPOUNDS FOR THE TREATMENT OF BACTERIAL INFECTIONS” (priority 2022, published 2026).

Key:
Assay type in all cases: cell-based
[1] = system: Pseudomonas aeruginosa expressing AmpC (CL5701); assay: Growth inhibitory concentration (OD600), P. aeruginosa CL5701, with relebactam; settings: lowest concentration inhibiting 95% of bacterial growth, BLi relebactam 4 μg/mL, 35±2° C., 22 hours
Experimental: (§1) The concentrations of compounds required to inhibit the growth of various strains of bacteria were determined in an assay that assessed bacterial growth by measuring optical density at 600 nm (OD600). The bacterial strains tested included the clinical strains Escherichia coli expressing NDM-1 (CLB30016), Klebsiella pneumoniae expressing KPC-1 (CL6569), Acinetobacter baumannii expressing TEM-1, AmpC, and Oxa-24/40 (CL6188) and Pseudomonas aeruginosa expressing AmpC (CL5701). All compounds were tested in the presence of a R lactamase inhibitor (BLi, Relebactam) in 384-well microplates.
(§2) The clinical strains were stored as frozen single use stocks, thawed and diluted into 1.1× cation-adjusted Mueller-Hinton II broth to achieve approximately 2×10^5 CFU/mL. Test compounds were dissolved in DMSO and diluted 1:50 in the assay, resulting in a final concentration range of 100 μM to 0.098 μM. On the day of the assay, 1 μL of test compound was added to the plate followed by 4 μL of 50 μg/mL BLi in MOPS buffer and 45 μL of diluted bacteria. Plates were centrifuged at 1000 rpm for 30 seconds, shaken at approximately 800 rpm for 1 minute, and incubated at 35±2° C. for 22 hours. The concentration of BLi used in the assay was 4 μg/mL. At the end of the incubation, absorbance at 600 nm was determined using a spectrophotometer. Inhibition was quantitated by identifying the lowest concentration of test compound that was required to inhibit 95% of the growth of the bacteria. The results for Examples 1-39 are reported in Table I, expressed as the concentration of compound that inhibited 95% of bacterial growth (Minimum Inhibitory Threshold Concentration; MITC95).

[2] = system: Escherichia coli expressing NDM-1 (CLB30016); assay: Growth inhibitory concentration (OD600), E. coli CLB30016, with relebactam; settings: lowest concentration inhibiting 95% of bacterial growth, BLi relebactam 4 μg/mL, 35±2° C., 22 hours
Experimental: as §1, §2

[3] = system: Acinetobacter baumannii expressing TEM-1, AmpC, and Oxa-24/40 (CL6188); settings: lowest concentration inhibiting 95% of bacterial growth; BLi relebactam 4 μg/mL; 35±2° C., 22 hours; OD600
Experimental: as §1, §2

Molecule	PA—CL5701 MITC95 [1] [µM]	EC—CLB30016 MITC95 [2] [µM]	AB—CL6188 MITC95 [3] [µM]
CC1(C)[C@H](NC(=O)/C(=N\O[C@](C)(C(=O)O)[C@H]2CCc3cc(C(=N)NC[C@H]4C[C@@](N)(CO)C4)ccc3O2)c2csc(N)n2)C(=O)N1OS(=O)(=O)O [Compound 71, (S)-2-((R)-6-(N-(((1r,3R)-3-amino-3-(hydroxymethyl)cyclobutyl)methyl)-carbamimidoyl)-chroman-2-yl)-2-((((Z)-1-(2-aminothiazol-4-yl)-2-(((S)-2,2-dimethyl-4-oxo-1-(sulfooxy)-azetidin-3-yl)amino)-2-oxoethylidene)amino)oxy)propanoic acid]	1.563	6.25	3.125
tert-butyl (S)-2-((((Z)-1-(2-((tert-butoxycarbonyl)amino)thiazol-4-yl)-2-(((S)-2,2-dimethyl-4-oxo-1-(sulfooxy)azetidin-3-yl)amino)-2-oxoethylidene)amino)oxy)-2-((R)-6-(N—(((S)-morpholin-2-yl)methyl)carbamimidoyl)chroman-2-yl)propanoate [Compound 32]	3.125	6.25	12.5
CC1(C)[C@H](NC(=O)/C(=N\O[C@](C)(C(=O)O)[C@H]2CCc3cc(C(=N)NC[C@H]4C[C@](N)(CO)C4)ccc3O2)c2csc(N)n2)C(=O)N1OS(=O)(=O)O [Compound 70, (S)-2-((R)-6-(N-(((1s,3S)-3-amino-3-(hydroxymethyl)cyclobutyl)methyl)-carbamimidoyl)-chroman-2-yl)-2-((((Z)-1-(2-aminothiazol-4-yl)-2-(((S)-2,2-dimethyl-4-oxo-1-(sulfooxy)-azetidin-3-yl)amino)-2-oxoethylidene)amino)oxy)propanoic acid]	1.563	6.25	6.25
